# According to patent US20130225629A1, “TARGETING PI3K/MTOR SIGNALLING AND NEUTROPHIL RECRUITMENT FOR TREATMENT OF ENTERITIS” (THE UNIVERSITY OF NORTH CAROLINA AT CHAPEL HILL, priority 2012, published 2013):
# Assays:
# NF-κB = assay: NF-κB-driven EGFP expression in colon (macroimaging, Western blot, confocal); type: in vivo; conditions: AS252424-treated vs vehicle-treated mice
# Procedure: Whole tissues were lysed in Laemmli buffer and 20 μg of protein was separated by SDS-PAGE, transferred to nitrocellulose membranes and protein detected using enhanced chemiluminescence reaction (ECL) as described previously. (Lippert et al., 2009). Primary antibodies used were phospho-p70S6K (T389) and p70S6K (Cell Signaling, Danvers, Mass., United States of America), EGFP (Sigma, St. Louis, Mo., United States of America), LC3 I/II (MBL) and Actin.
# II10^−/−; NF-κB^EGFP mice were sacrificed; the colon was dissected and immediately imaged using a charge-coupled device camera in a light-tight imaging box with a dual-filtered light source and emission filters specific for EGFP (LT-99D2 Illumatools; Lightools Research, Encinitas, Calif., United States of America). For microimaging, colonic segments were cut open and fixed in 4% paraformaldehyde overnight at 4° C., and then permeabilized in 2% triton overnight at 4° C. The tissues were then immersed in FocusClear (CelExplorer labs) and then stained with DAPI. […]
# A segment of the distal colon was lysed in 300 μl Laemmli buffer, homogenized and heated at 95° C. for 5 min. […] Targeted protein was detected using enhanced chemiluminescence reaction (ECL) as described previously (Muhlbauer et al., 2008). […] The density of Western blot bands was quantified using ImageJ and data were normalized to total AKT control. […]
# C. jejuni = assay: FISH for C. jejuni in colon; type: in vivo; conditions: AS252424-treated mice
# Procedure: Cy3-tagged 5′[…]3′ (SEQ ID NO: 1; Poppert et al., 2008) was used to probe the presence of C. jejuni. Deparaffinized, formalin-fixed 5 μm thick sections were incubated for 15 minutes in lysozyme (300,000 Units/ml lysozyme; Sigma-Aldrich, St. Louis, Mo., United States of America) buffer (25 mM Tris pH 7.5, 10 mM EDTA, 585 mM sucrose, and 0.3 mg/ml sodium taurocholate) at room temperature and hybridized overnight at 46° C. in hybridization chambers with the oligonucleotide probe (final concentration of 5 ng/μl in a solution of 30 percent formamide, 0.9 M sodium chloride, 20 mM Tris pH 7.5, and 0.01% sodium dodecyl sulfate). Tissue sections were washed for 20 minutes at 48° C. in washing buffer (0.9 M sodium chloride, 20 mM Tris pH 7.5) and once in distilled water for 10 seconds, dried at 46° C., mounted with DAPI mount media, and imaged using a Zeiss (Carl Zeiss, Thornwood, N.Y., United States of America) LSM710 Spectral Confocal Laser Scanning Microscope system with ZEN 2008 software. Acquired images were analyzed using BioimageXD. (Kankaanpaa et al., 2006). […]
# Cy3-tagged 5′[…]3′ (SEQ ID NO: 1) was used to probe the presence of C. jejuni in the intestinal tissue sections as previously described (Sun et al., 2012). […] Acquired images were analyzed using BioimageXD (Kankaanpaa et al., 2006).
# neutrophils (MPO) = assay: Myeloperoxidase (MPO) immunohistochemistry of colon, neutrophil infiltration; type: in vivo, mice; conditions: in the presence of AS252424
# Procedure: Deparaffinized colon sections were treated with 3% H2O2 for 10 minutes to quench endogenous peroxidases. Antigen retrieval was performed using microwave heating for 10 min in 10 mM citrate buffer pH 6.0. Sections were blocked in 5% goat serum TBS-T for 1 hour. The slides were incubated overnight at 4° C. with an anti-MPO antibody (1:400) (Thermo Scientific, Hampton, N.H., United States of America). Secondary biotinylated antibody was diluted at 1:1000 with the VECTASTAIN® ABC Elite Kit (Vector Laboratories, Inc., Burlingame, Calif., United States of America). Visualization was performed using DAB chromogen (Dako, Inc., Carpinteria, Calif., United States of America). Finally, sections were counterstained with hematoxylin for 5 seconds. Sections were imaged at the OLYMPUS® microscope using DP 71 camera and DP Controller 3.1.1.276 (Olympus, Center Valley, Pa., United States of America).
# Neutrophils in intestinal tissue were detected using anti-myeloperoxidase (MPO) IHC as described previously (Sun et al., 2012). Briefly, intestinal tissue sections were deparaffinized, blocked and incubated with an anti-MPO antibody (1:400; Thermo Scientific, Hampton, N.H., United States of America) overnight. […]
# CMT-93 cells = assay: C. jejuni epithelial cell translocation assay (transwell); type: cell-based, Murine; conditions: 10 μM AS252424, transwell, up to 5 hrs
# Procedure: Murine rectal carcinoma epithelial CMT-93 cells (1×10^6) were plated onto 12-well Transwells (Corning Inc., Corning, N.Y., United States of America) in DMEM media containing 10% FBS and 2 mM L-glutamine. Upon reached confluency (monolayer), the medium was changed to 1% FBS medium and 10^8 C. jejuni was added to the upper inserts in presence or absence of 10 μM AS252424. Aliquot of medium from bottom wells was collected every hr for 5 hrs, serially diluted and cultured on Remel (Remel, Thermo Scientific, Hampton, N.H., United States of America) plates as described before (Sun et al., 2012). Translocated C. jejuni was reported as CFU/ml at each time point.
smiles,measurement,setting,value
O=C1NC(=O)/C(=C/c2ccc(-c3ccc(F)cc3O)o2)S1 [AS252424],induction of EGFP expression (NF-κB activity) in the colon,NF-κB,reduced
same,"C. jejuni in colon (FISH, confocal)",C. jejuni,barely detectable
same,C. jejuni-induced neutrophil infiltration into colonic tissues (MPO staining),neutrophils (MPO),strongly reduced
same,C. jejuni translocation across CMT-93 monolayer,CMT-93 cells,did not prevent
